Patent publication US9006440B2, “Furopyridine derivatives” (Merck Patent GmbH, priority 2010, dated 2015)

How the values were obtained:
Type in all cases: biochemical
BTK = target: T1, BTK (Homo sapiens, UniProt Q06187); assay: BTK enzymatic assay (Caliper LifeSciences technology)
T1 construct: purchased Carna Bioscience, Kobe, Japan
Procedure: (§1) The assays described here are performed on the Caliper Life Sciences LC3000 system This technology provides data on enzyme activity via measurement of the relative amounts of phosphorylated or unphosphorylated fluorescently labelled substrate peptide at the end of an enzymatic reaction. These different states of peptide are resolved by applying a potential difference across the sample. The presence of the charged phosphate group on the product (as opposed to the substrate) causes a different peptide mobility between the two peptides. This is visualized by excitation of the fluorescent label on the substrate and product peptides and represented as peaks within the analysis software.
(§2) In order to measure inhibitor activity of kinase inhibitors on this technology, a TTP Mosquito liquid handling instrument is used to place 0.25 ul of the appropriate concentration of inhibitor in 100% DMSO (for a dose response curve calculation) into each well of a 384-well plate. To this reaction components are added to a final volume of 25 ul. The table below indicates the sequences and concentrations for the assays described in this report. Standard components are 1 mM DTT (Sigma, D0632), 1 mM MgCl2 (Sigma, M1028), 100 mM HEPES pH 7.5 (Calbiochem, 391338), 0.015% Brij-35 (Sigma, B4184).
(§3) The reaction is incubated for 90 min at 25 C, and then stopped by the addition of 70 ul of Stop buffer (100 mM HEPES pH 7.5, 0.015% Brij-35, 10 mM EDTA (Sigma, E7889)).
(§4) The plate is read on a Caliper LC 3000 in an Off-Chip mobility shift assay format, on a 12-sipper chip. Unphosphorylated substrate and phosphorylated product peptide resolve as separate peaks allowing direct measurement of percentage of conversion of substrate to product. The percent conversion can be plotted against concentration of inhibitor to produce a sigmoidal dose response curve, from which an IC50 can be calculated using GeneData Condoseo or a similar product.

Syk = target: T2, Syk (Homo sapiens, UniProt P43405); assay: Syk enzyme assay (SYK flash plate assay / Caliper mobility shift)
T2 construct: purchased BPS Bioscience, CA, USA
Outline: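 Flashplate format: 2.5 nM SYK, 400 nM biotinylated peptide, 10 μM ATP with 33P-ATP, pH 7.5, 1 h at 30 °C; radioactivity read, staurosporine background. Caliper format: 90 min at 25 °C, mobility-shift read of substrate-to-product conversion; IC50 from dose-response curve.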

KDR = target: T3, KDR (Homo sapiens, UniProt P35968); assay: KDR enzymatic assay (Caliper LifeSciences technology)
T3 construct: purchased BPS Bioscience, CA, USA
T3 sequence (P35968 20-1356): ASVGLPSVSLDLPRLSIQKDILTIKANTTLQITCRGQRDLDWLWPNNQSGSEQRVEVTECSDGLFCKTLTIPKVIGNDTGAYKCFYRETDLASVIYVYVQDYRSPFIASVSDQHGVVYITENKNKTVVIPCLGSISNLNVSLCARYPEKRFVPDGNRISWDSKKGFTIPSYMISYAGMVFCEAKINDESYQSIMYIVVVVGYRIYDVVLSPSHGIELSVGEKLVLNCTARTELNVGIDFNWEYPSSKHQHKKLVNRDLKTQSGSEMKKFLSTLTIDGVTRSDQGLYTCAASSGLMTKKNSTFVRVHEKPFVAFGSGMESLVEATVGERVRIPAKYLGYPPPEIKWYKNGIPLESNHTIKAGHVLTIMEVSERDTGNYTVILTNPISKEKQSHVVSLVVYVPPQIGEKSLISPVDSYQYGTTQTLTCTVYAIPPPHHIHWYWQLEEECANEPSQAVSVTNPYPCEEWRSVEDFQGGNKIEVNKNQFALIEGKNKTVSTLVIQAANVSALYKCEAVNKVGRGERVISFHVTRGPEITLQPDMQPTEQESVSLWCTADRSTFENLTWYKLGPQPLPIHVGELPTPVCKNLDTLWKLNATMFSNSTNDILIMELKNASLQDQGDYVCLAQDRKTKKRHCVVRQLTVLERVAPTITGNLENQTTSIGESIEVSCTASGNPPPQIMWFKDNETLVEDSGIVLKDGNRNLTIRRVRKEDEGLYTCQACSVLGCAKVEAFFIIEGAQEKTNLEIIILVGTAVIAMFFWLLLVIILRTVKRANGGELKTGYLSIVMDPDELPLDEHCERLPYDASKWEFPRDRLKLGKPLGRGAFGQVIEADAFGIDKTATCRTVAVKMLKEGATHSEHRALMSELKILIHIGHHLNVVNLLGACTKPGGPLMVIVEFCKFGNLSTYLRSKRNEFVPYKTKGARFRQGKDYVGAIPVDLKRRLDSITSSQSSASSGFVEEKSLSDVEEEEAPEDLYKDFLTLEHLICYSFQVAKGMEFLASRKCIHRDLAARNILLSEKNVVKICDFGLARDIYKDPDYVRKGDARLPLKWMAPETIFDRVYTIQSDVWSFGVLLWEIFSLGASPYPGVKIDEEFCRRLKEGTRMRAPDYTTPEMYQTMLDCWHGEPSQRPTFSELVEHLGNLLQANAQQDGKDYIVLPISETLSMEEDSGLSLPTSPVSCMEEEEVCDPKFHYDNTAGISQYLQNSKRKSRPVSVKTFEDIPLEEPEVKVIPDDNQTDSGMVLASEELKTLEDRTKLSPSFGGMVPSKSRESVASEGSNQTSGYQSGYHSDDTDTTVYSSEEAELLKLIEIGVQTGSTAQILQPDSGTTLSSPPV
Procedure: as §1, §2, §3, §4

SRC = target: T4, SRC (Homo sapiens, UniProt P12931); assay: Src enzymatic assay (Caliper LifeSciences technology)
T4 construct: purchased Carna Bioscience, Kobe, Japan
T4 sequence (P12931 whole entry): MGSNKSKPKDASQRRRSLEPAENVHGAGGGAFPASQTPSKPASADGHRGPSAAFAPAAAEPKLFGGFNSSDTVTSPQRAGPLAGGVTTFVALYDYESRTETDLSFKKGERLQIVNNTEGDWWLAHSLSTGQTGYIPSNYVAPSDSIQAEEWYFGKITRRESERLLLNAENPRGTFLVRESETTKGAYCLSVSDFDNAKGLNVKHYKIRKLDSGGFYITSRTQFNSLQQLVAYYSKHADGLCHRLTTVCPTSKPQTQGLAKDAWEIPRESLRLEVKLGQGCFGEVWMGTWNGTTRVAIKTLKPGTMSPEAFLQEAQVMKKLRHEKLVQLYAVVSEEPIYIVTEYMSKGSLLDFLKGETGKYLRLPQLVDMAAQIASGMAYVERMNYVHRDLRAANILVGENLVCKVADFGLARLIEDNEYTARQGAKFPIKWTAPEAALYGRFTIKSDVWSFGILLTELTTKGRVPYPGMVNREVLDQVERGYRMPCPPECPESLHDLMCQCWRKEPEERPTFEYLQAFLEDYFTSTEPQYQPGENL
Procedure: as §1, §2, §3, §4

T1 sequence (Q06187 whole entry): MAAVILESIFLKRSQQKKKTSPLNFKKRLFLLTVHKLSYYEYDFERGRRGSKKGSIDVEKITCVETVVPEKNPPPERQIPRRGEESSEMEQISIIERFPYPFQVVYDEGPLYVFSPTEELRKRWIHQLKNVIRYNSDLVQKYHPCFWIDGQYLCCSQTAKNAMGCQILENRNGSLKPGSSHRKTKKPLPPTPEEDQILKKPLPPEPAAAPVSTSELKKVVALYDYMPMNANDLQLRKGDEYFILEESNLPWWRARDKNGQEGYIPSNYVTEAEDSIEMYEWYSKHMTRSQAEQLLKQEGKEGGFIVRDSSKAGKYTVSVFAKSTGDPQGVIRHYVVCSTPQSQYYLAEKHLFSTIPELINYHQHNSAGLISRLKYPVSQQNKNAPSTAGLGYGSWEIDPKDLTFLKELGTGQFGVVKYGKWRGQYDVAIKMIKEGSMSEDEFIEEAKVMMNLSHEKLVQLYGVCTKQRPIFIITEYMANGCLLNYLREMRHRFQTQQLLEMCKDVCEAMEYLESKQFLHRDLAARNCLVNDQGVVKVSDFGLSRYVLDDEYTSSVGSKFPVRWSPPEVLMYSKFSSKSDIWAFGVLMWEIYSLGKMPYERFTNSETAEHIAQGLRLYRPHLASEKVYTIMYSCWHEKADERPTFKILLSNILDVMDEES

Row | IC50 (BTK) | IC50 (Syk) | IC50 (KDR) | IC50 (SRC) | SMILES
1 | 0.3 to 3 µM |  |  |  | C=CC(=O)NCc1cccc(-c2cc3nccc(-c4ccccc4)c3o2)c1 [Compound D15, N-[3-(7-Phenyl-furo[3,2-b]pyridin-2-yl)-benzyl]-acrylamide]
2 | 3 to 50 µM |  |  |  | CCC(=O)Nc1cccc(-c2ccnc3cc(C)oc23)c1 [Compound D29, N-[3-(2-Methyl-furo[3,2-b]pyridin-7-yl)-phenyl]-propionamide]
3 | 3 to 50 µM |  |  |  | C=CC(=O)Nc1cccc(-c2cc3nccc(Oc4ccc5ncccc5c4)c3o2)c1 [Compound D10, N-{3-[7-(Quinolin-6-yloxy)-furo[3,2-b]pyridin-2-yl]-phenyl}-acrylamide]
4 | 3 to 50 µM |  |  |  | CCC(=O)Nc1ccc(Oc2ccnc3cc(-c4ccccc4)oc23)cc1 [Compound D24, N-[4-(2-Phenyl-furo[3,2-b]pyridin-7-yloxy)-phenyl]-propionamide]
5 | 0.3 to 3 µM |  |  |  | C=CC(=O)Nc1cccc(-c2cc3nccc(Oc4ccc(Cl)cc4)c3o2)c1 [Compound D11, N-{3-[7-(4-Chloro-phenoxy)-furo[3,2-b]pyridin-2-yl]-phenyl}-acrylamide]
6 | < 0.3 µM |  |  |  | C=CC(=O)NCc1cccc(-c2cc3nccc(Oc4ccc(Oc5ccccc5)cc4)c3o2)c1 [Compound D4, N-{3-[7-(4-Phenoxy-phenoxy)-furo[3,2-b]pyridin-2-yl]-benzyl}-acrylamide]
7 |  | 0.3 to 3 µM | < 0.3 µM | < 0.3 µM | Cc1c(Nc2ccnc3cc(-c4ccc(OCCCN(C)C)cc4)oc23)ccc2[nH]ccc12 [Compound B58, {2-[4-(3-Dimethylamino-propoxy)-phenyl]-furo[3,2-b]pyridin-7-yl}-(4-methyl-1H-indo-5-yl)-amine]
8 | < 0.3 µM |  |  |  | Cc1cc2nccc(Oc3cccc(NC(=O)CCl)c3)c2o1 [Compound D27, 2-Chloro-N-[3-(2-methyl-furo[3,2-b]pyridin-7-yloxy)-phenyl]-acetamide]
9 | 3 to 50 µM |  |  |  | CCC(=O)Nc1cccc(Oc2ccnc3cc(-c4ccccc4)oc23)c1 [Compound D21, N-[3-(2-Phenyl-furo[3,2-b]pyridin-7-yloxy)-phenyl]-propionamide]
10 |  | 3 to 50 µM | 0.3 to 3 µM | 0.3 to 3 µM | Cc1cccc(-c2cc3nccc(Nc4ccc5[nH]ccc5c4C)c3o2)c1 [Compound B51, (4-Methyl-1H-indol-5-yl)-(2-m-tolyl-furo[3,2-b]pyridin-7-yl)-amine]
11 |  | 0.3 to 3 µM | 0.3 to 3 µM | 0.3 to 3 µM | COc1ccc(-c2cc3nccc(Nc4ccc5[nH]ccc5c4C)c3o2)cc1C [Compound B50, [2-(4-Methoxy-3-methyl-phenyl)-furo[3,2-b]pyridin-7-yl]-(4-methyl-1H-indol-5-yl)-amine]
12 |  | 0.3 to 3 µM | 0.3 to 3 µM | < 0.3 µM | Cc1c(Nc2ccnc3cc(-c4ccccc4)oc23)ccc2[nH]ccc12 [Compound B21, (4-Methyl-1H-indol-5-yl)-(2-phenyl-furo[3,2-b]pyridin-7-yl)-amine]
13 |  | 0.3 to 3 µM | 0.3 to 3 µM | < 0.3 µM | Cc1c(Nc2ccnc3cc(-c4ccc(N5CCOCC5)cc4)oc23)ccc2[nH]ccc12 [Compound B54]
14 | 3 to 50 µM |  |  |  | CCC(=O)Nc1cccc(-c2cc3nccc(-c4ccccc4)c3o2)c1 [Compound D14, N-[3-(7-Phenyl-furo[3,2-b]pyridin-2-yl)-phenyl]-propionamide]
15 | 3 to 50 µM |  |  |  | CCC(=O)Nc1cccc(Oc2ccnc3cc(C)oc23)c1 [Compound D28, N-[3-(2-Methyl-furo[3,2-b]pyridin-7-yloxy)-phenyl]-propionamide]
16 |  | < 0.3 µM | 3 to 50 µM | 3 to 50 µM | COc1cc(-c2cc3nccc(-c4cccc(CNC(C)=O)c4)c3o2)cc(OC)c1OC [Compound A52, N-[[3-[2-(3,4,5-trimethoxyphenyl)furo[3,2-b]pyridin-7-yl]phenyl]methyl]-acetamide]
17 | < 0.3 µM |  |  |  | O=C(CCl)Nc1ccc(Oc2ccnc3cc(-c4ccccc4)oc23)cc1 [Compound D23, 2-Chloro-N-[4-(2-phenyl-furo[3,2-b]pyridin-7-yloxy)-phenyl]-acetamide]
18 |  | < 0.3 µM | 0.3 to 3 µM | 0.3 to 3 µM | COc1cc(-c2cc3nccc(-c4cc(OC(C)C)cc(C(=O)O)c4)c3o2)cc(OC)c1OC [Compound C155]

Row | IC50 (BTK) | IC50 (Syk) | IC50 (KDR) | IC50 (SRC) | SMILES
19 |  | < 0.3 µM | 0.3 to 3 µM | 0.3 to 3 µM | COc1cc(-c2cc3nccc(-c4cc(OC(F)(F)F)cc(C(=O)O)c4)c3o2)cc(OC)c1OC [Compound C163]
20 |  | 0.3 to 3 µM | 0.3 to 3 µM | 3 to 50 µM | COc1ccc(-c2cc3nccc(-c4ccccc4)c3o2)cc1NC(=O)[C@@H]1C[C@@H](O)CN1 [Compound C40]
21 |  | 3 to 50 µM | 3 to 50 µM | 3 to 50 µM | COc1cc(-c2cc3nccc(Nc4ccc(Sc5nccn5C)c(Cl)c4)c3o2)cc(OC)c1OC [Compound B16, [3-Chloro-4-(1-methyl-1H-imidazol-2-ylsulfanyl)-phenyl]-[2-(3,4,5-trimethoxy-phenyl)-furo[3,2-b]pyridin-7-yl]-amine]
22 | < 0.3 µM |  |  |  | O=C(CCl)Nc1cccc(Oc2ccnc3cc(-c4ccccc4)oc23)c1 [Compound D20, 2-Chloro-N-[3-(2-phenyl-furo[3,2-b]pyridin-7-yloxy)-phenyl]-acetamide]
23 |  | 3 to 50 µM | 0.3 to 3 µM | 0.3 to 3 µM | COc1ccc(-c2cc3nccc(Nc4ccc5[nH]ccc5c4C)c3o2)cc1 [Compound B47, [2-(4-Methoxy-phenyl)-furo[3,2-b]pyridin-7-yl]-(4-methyl-1H-indol-5-yl)-amine]
24 |  | < 0.3 µM | 3 to 50 µM | 0.3 to 3 µM | COc1cc(-c2cc3nccc(-c4cccc5[nH]ccc45)c3o2)cc(OC)c1OC [Compound A20, 7-(1H-Indol-4-yl)-2-(3,4,5-trimethoxy-phenyl)-furo[3,2-b]pyridine]
25 |  | < 0.3 µM | 0.3 to 3 µM | < 0.3 µM | COc1ccc(OC)c(-c2cc3nccc(-c4cccc(C(=O)N[C@@H]5CCCC[C@@H]5N)c4)c3o2)c1 [Compound C178]
26 |  | < 0.3 µM | 0.3 to 3 µM | 0.3 to 3 µM | COc1ccc(O)cc1-c1ccnc2cc(-c3cc(OC)c(OC)c(OC)c3)oc12 [Compound C136]
27 |  | 0.3 to 3 µM | 0.3 to 3 µM | < 0.3 µM | Cc1c(Nc2ccnc3cc(-c4ccc5c(c4)OCO5)oc23)ccc2[nH]ccc12 [Compound B48]
28 |  | 3 to 50 µM | 3 to 50 µM | 3 to 50 µM | Cc1noc(C)c1-c1cc2nccc(-c3c(C)noc3C)c2o1 [Compound B41, 2,7-Bis-(3,5-dimethyl-isoxazol-4-yl)-furo[3,2-b]pyridine]
29 |  | < 0.3 µM | < 0.3 µM | < 0.3 µM | COc1ccc(-c2cc3nccc(Nc4ccc5[nH]ccc5c4C)c3o2)cc1OC [Compound B53, [2-(3,4-Dimethoxy-phenyl)-furo[3,2-b]pyridin-7-yl]-(4-methyl-1H-indol-5-yl)-amine]
30 |  | 0.3 to 3 µM | 0.3 to 3 µM | 3 to 50 µM | COc1ccc(-c2cc3nccc(-c4ccc(OC)c(OC)c4OC)c3o2)c(OC)c1OC [Compound B40, 2,7-Bis-(2,3,4-trimethoxy-phenyl)-furo[3,2-b]pyridine]
31 |  | 3 to 50 µM | 0.3 to 3 µM | < 0.3 µM | Cc1ccc(-c2cc3nccc(Nc4ccc5[nH]ccc5c4C)c3o2)cc1 [Compound B46, (4-Methyl-1H-indol-5-yl)-(2-p-tolyl-furo[3,2-b]pyridin-7-yl)-amine]
32 |  | < 0.3 µM | 0.3 to 3 µM | 3 to 50 µM | COc1cc(-c2cc3nccc(-c4cccc(OCCN)c4)c3o2)cc(OC)c1OC [Compound A38, 2-{3-[2-(3,4,5-Trimethoxy-phenyl)-furo[3,2-b]pyridin-7-yl]-phenoxy}-ethylamine]
33 |  | 0.3 to 3 µM | 0.3 to 3 µM | 0.3 to 3 µM | Cc1cc(C)cc(-c2cc3nccc(Nc4ccc5[nH]ccc5c4C)c3o2)c1 [Compound B52, [2-(3,5-Dimethyl-phenyl)-furo[3,2-b]pyridin-7-yl]-(4-methyl-1H-indol-5-yl)-amine]
34 |  | 0.3 to 3 µM | < 0.3 µM | < 0.3 µM | COc1cccc(-c2cc3nccc(Nc4ccc5[nH]ccc5c4C)c3o2)c1OC [Compound B59, [2-(2,3-Dimethoxy-phenyl)-furo[3,2-b]pyridin-7-yl]-(4-methyl-1H-indol-5-yl)-amine]
35 |  | < 0.3 µM | 0.3 to 3 µM | 3 to 50 µM | COc1cc(-c2cc3nccc(-c4cccc(CN)c4)c3o2)cc(OC)c1OC [Compound A51, 3-[2-(3,4,5-Trimethoxy-phenyl)-furo[3,2-b]pyridin-7-yl]-benzylamine]
